In PubChem BioAssay AID602351 (The Scripps Research Institute Molecular Screening Center, 2012):
Calls of active or inactive are those of the source. No rule for the calls is given here.

Tests used:
Assay in all cases: mouse tissue hydrolase off-target profiling – ABPP MudPIT, LC-MS, ABHD6 analysis, in vivo study for DAGLb inhibitor project, late-stage follow-up (AID 602351)
Abhd11 = conditions: serine hydrolase spectral counts, stronger effect = lower value
[1] = molecular target: Monoacylglycerol lipase ABHD6 (Mus musculus) (UniProt Q8R2Y0); conditions: serine hydrolase spectral counts, stronger effect = lower value
Chain of Monoacylglycerol lipase ABHD6 (Mus musculus) (Q8R2Y0 whole entry, looked up): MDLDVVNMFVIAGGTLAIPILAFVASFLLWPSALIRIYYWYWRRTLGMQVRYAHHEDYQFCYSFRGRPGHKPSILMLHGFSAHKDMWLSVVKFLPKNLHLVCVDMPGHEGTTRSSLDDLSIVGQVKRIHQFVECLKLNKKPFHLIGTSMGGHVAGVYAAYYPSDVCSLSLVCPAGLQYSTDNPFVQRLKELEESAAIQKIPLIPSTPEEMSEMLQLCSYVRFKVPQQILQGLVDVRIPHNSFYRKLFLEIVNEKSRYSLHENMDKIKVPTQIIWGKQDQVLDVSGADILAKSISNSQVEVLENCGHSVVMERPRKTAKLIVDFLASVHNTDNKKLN

Ctsa = conditions: serine hydrolase spectral counts, stronger effect = lower value
Tpp2 = conditions: serine hydrolase spectral counts, stronger effect = lower value
Gzma = conditions: serine hydrolase spectral counts, stronger effect = lower value
Prepl = conditions: serine hydrolase spectral counts, stronger effect = lower value
Dpp7 = conditions: serine hydrolase spectral counts, stronger effect = lower value
Apeh = conditions: serine hydrolase spectral counts, stronger effect = lower value
Magl = conditions: serine hydrolase spectral counts, stronger effect = lower value
Lipe = conditions: serine hydrolase spectral counts, stronger effect = lower value
Fam108b = conditions: serine hydrolase spectral counts, stronger effect = lower value
Aoah = conditions: serine hydrolase spectral counts, stronger effect = lower value
Dpp4 = conditions: serine hydrolase spectral counts, stronger effect = lower value
Acot1 = conditions: serine hydrolase spectral counts, stronger effect = lower value
Ctsg = conditions: serine hydrolase spectral counts, stronger effect = lower value
Prcp = conditions: serine hydrolase spectral counts, stronger effect = lower value
KIAA1363 = conditions: serine hydrolase spectral counts, stronger effect = lower value
Fasn = conditions: serine hydrolase spectral counts, stronger effect = lower value
Pafah1b2 = conditions: serine hydrolase spectral counts, stronger effect = lower value
Elane = conditions: serine hydrolase spectral counts, stronger effect = lower value
Lpl = conditions: serine hydrolase spectral counts, stronger effect = lower value
Acot2 = conditions: serine hydrolase spectral counts, stronger effect = lower value
[2] = molecular target: Acyl-protein thioesterase 1 (Mus musculus) (UniProt P97823); conditions: serine hydrolase spectral counts
Chain of Acyl-protein thioesterase 1 (Mus musculus) (P97823 whole entry, looked up): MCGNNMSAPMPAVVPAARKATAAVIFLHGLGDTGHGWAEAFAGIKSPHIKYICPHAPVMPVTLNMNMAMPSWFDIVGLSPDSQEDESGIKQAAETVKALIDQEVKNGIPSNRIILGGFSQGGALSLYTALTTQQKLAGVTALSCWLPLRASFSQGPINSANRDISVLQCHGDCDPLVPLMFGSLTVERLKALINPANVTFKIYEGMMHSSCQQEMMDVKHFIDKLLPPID

Pnpla7 = conditions: serine hydrolase spectral counts, stronger effect = lower value
Pla2g15 = conditions: serine hydrolase spectral counts, stronger effect = lower value
Dpp9 = conditions: serine hydrolase spectral counts, stronger effect = lower value
[3] = molecular target: Palmitoyl-protein thioesterase ABHD10, mitochondrial (Mus musculus) (UniProt Q6PE15); conditions: serine hydrolase spectral counts, stronger effect = lower value
Chain of Palmitoyl-protein thioesterase ABHD10, mitochondrial (Mus musculus) (Q6PE15 whole entry, looked up): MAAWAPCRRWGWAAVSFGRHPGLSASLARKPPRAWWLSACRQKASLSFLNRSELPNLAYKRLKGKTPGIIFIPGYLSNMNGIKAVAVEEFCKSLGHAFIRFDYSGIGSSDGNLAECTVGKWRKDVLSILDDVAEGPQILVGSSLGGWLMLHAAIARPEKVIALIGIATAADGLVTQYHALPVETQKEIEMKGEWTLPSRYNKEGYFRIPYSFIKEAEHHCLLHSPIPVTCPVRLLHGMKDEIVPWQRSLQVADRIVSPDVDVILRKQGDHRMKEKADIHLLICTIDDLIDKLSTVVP

Pafah1b3 = conditions: serine hydrolase spectral counts, stronger effect = lower value
[4] = molecular target: Diacylglycerol lipase-beta (Mus musculus) (UniProt Q91WC9); conditions: serine hydrolase spectral counts, Daglb, stronger effect = lower value
Chain of Diacylglycerol lipase-beta (Mus musculus) (Q91WC9 whole entry, looked up): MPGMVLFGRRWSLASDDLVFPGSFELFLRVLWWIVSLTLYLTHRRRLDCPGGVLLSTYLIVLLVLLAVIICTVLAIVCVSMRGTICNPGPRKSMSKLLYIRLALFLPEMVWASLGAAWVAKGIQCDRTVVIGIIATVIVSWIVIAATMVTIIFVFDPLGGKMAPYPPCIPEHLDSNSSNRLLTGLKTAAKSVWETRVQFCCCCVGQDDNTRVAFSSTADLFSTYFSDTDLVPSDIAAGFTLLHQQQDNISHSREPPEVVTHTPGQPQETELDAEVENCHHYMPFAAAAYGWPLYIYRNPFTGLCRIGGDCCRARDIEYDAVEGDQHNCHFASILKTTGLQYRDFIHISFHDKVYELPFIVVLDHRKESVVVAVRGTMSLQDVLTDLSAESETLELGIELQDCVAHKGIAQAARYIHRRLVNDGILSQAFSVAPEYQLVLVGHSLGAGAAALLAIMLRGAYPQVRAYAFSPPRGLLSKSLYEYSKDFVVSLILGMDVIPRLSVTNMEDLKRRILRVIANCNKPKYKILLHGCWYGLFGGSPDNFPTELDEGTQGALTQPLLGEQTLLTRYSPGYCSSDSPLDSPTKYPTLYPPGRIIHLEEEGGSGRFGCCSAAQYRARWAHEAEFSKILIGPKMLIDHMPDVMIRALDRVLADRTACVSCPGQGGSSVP

Iah1 = conditions: serine hydrolase spectral counts, stronger effect = lower value
Lipa = conditions: serine hydrolase spectral counts, stronger effect = lower value
Ppt2 = conditions: serine hydrolase spectral counts, stronger effect = lower value
Abhd12 = conditions: serine hydrolase spectral counts, stronger effect = lower value
[5] = molecular target: Platelet-activating factor acetylhydrolase 2, cytoplasmic (Mus musculus) (UniProt Q8VDG7); conditions: serine hydrolase spectral counts
Chain of Platelet-activating factor acetylhydrolase 2, cytoplasmic (Mus musculus) (Q8VDG7 whole entry, looked up): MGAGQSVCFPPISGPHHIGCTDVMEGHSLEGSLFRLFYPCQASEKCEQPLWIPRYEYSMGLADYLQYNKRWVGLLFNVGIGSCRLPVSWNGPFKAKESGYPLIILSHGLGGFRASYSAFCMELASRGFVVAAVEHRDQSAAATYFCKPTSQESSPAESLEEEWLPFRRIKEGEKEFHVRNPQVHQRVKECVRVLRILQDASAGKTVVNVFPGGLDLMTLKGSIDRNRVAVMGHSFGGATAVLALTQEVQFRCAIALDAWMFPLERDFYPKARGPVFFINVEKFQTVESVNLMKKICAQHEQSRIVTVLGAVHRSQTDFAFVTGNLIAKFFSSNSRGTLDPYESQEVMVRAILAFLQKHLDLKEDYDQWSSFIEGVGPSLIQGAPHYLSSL

Lypla2 = conditions: serine hydrolase spectral counts, stronger effect = lower value
[6] = molecular target: Platelet-activating factor acetylhydrolase (Mus musculus) (UniProt Q60963); conditions: serine hydrolase spectral counts
Chain of Platelet-activating factor acetylhydrolase (Mus musculus) (Q60963 whole entry, looked up): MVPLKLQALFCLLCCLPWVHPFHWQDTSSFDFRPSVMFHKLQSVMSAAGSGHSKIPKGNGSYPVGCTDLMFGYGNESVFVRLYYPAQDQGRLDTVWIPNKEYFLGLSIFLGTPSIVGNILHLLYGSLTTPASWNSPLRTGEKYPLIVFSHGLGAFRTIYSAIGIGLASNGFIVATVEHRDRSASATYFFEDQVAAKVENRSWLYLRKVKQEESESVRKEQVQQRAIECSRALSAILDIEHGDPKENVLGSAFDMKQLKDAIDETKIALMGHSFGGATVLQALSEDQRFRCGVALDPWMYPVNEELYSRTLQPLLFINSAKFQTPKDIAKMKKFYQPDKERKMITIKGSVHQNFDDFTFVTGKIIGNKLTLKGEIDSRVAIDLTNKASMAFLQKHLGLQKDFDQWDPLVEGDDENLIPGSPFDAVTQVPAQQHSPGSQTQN

Dpp8 = conditions: serine hydrolase spectral counts, stronger effect = lower value
Pnpla6 = conditions: serine hydrolase spectral counts, stronger effect = lower value
[7] = significance of hydrolase inhibition

spectral counts, test compound (Abhd11): 6.67 (inactive) | p value vs vehicle (Abhd11; [7]): 0.422 | spectral counts, test compound [1]: 0.667 | p value vs vehicle [1, 7]: 0.006 | spectral counts, test compound (Ctsa): 86.7 (inactive) | p value vs vehicle (Ctsa; [7]): 0.035 | spectral counts, test compound (Tpp2): 21 (inactive) | p value vs vehicle (Tpp2; [7]): 0.018 | spectral counts, test compound (Gzma): 5.33 (inactive) | p value vs vehicle (Gzma; [7]): 0.275 | spectral counts, test compound (Prepl): 4.33 (inactive) | p value vs vehicle (Prepl; [7]): 0.101 | spectral counts, test compound (Dpp7): 16.3 (inactive) | p value vs vehicle (Dpp7; [7]): 0.826 | spectral counts, test compound (Apeh): 148 (inactive) | p value vs vehicle (Apeh; [7]): 0.187 | spectral counts, test compound (Magl): 18 (inactive) | p value vs vehicle (Magl; [7]): 0.937 | spectral counts, test compound (Lipe): 39.7 (inactive) | p value vs vehicle (Lipe; [7]): 0.014 | spectral counts, test compound (Fam108b): 13.7 (inactive) | p value vs vehicle (Fam108b; [7]): 0.018 | spectral counts, test compound (Aoah): 14.7 (inactive) | p value vs vehicle (Aoah; [7]): 0.53 | spectral counts, test compound (Dpp4): 42 (inactive) | p value vs vehicle (Dpp4; [7]): 0.1 | spectral counts, test compound (Acot1): 25.7 (inactive) | p value vs vehicle (Acot1; [7]): 0.22 | spectral counts, test compound (Ctsg): 36.3 (inactive) | p value vs vehicle (Ctsg; [7]): 0.101 | spectral counts, test compound (Prcp): 99.7 (inactive) | p value vs vehicle (Prcp; [7]): 0.659 | spectral counts, test compound (KIAA1363): 167 (inactive) | p value vs vehicle (KIAA1363; [7]): 0.699 | spectral counts, test compound (Fasn): 75.7 (inactive) | p value vs vehicle (Fasn; [7]): 0.026 | spectral counts, test compound (Pafah1b2): 28.3 (inactive) | p value vs vehicle (Pafah1b2; [7]): 0.6 | spectral counts, test compound (Elane): 28.3 (inactive) | p value vs vehicle (Elane; [7]): 0.242 | spectral counts, test compound (Lpl): 58.3 (inactive) | p value vs vehicle (Lpl; [7]): 0.211 | spectral counts, test compound (Acot2): 41.7 (inactive) | p value vs vehicle (Acot2; [7]): 0.041 | spectral counts, test compound ([2]; Lypla1, stronger effect = lower value): 51.7 (inactive) | p value vs vehicle ([2]; Lypla1, significance of hydrolase inhibition, stronger effect = lower value): 0.676 | spectral counts, test compound (Pnpla7): 34 (inactive) | p value vs vehicle (Pnpla7; [7]): 0.656 | spectral counts, test compound (Pla2g15): 29 (inactive) | p value vs vehicle (Pla2g15; [7]): 0.012 | spectral counts, test compound (Dpp9): 62 (inactive) | p value vs vehicle (Dpp9; [7]): 0.978 | spectral counts, test compound [3]: 13.3 (inactive) | p value vs vehicle [3, 7]: 0.911 | spectral counts, test compound (Pafah1b3): 21.7 (inactive) | p value vs vehicle (Pafah1b3; [7]): 0.409 | spectral counts, test compound [4]: 13.7 (inactive) | p value vs vehicle [4, 7]: 0.28 | spectral counts, test compound (Iah1): 5.67 (inactive) | p value vs vehicle (Iah1; [7]): 0.442 | spectral counts, test compound (Lipa): 3 (inactive) | p value vs vehicle (Lipa; [7]): 0.482 | spectral counts, test compound (Ppt2): 5.67 (inactive) | p value vs vehicle (Ppt2; [7]): 0.451 | spectral counts, test compound (Abhd12): 24.3 (inactive) | p value vs vehicle (Abhd12; [7]): 0.363 | spectral counts, test compound ([5]; Pafah2, stronger effect = lower value): 16 (inactive) | p value vs vehicle ([5]; Pafah2, significance of hydrolase inhibition, stronger effect = lower value): 0.202 | spectral counts, test compound (Lypla2): 89.3 (inactive) | p value vs vehicle (Lypla2; [7]): 0.688 | spectral counts, test compound ([6]; Pla2g7, stronger effect = lower value): 17.7 (inactive) | p value vs vehicle ([6]; Pla2g7, significance of hydrolase inhibition, stronger effect = lower value): 0.115 | spectral counts, test compound (Dpp8): 31 (inactive) | p value vs vehicle (Dpp8; [7]): 0.639 | spectral counts, test compound (Pnpla6): 4 (inactive) | p value vs vehicle (Pnpla6; [7]): 0.028
SMILES: COc1ccc(-c2ccc(-c3cn(C(=O)N4CCCCC4c4ccccc4)nn3)cc2)cc1 (stereo unspecified)
